We go through two compounds from patent US20050209336A1, “EP2 receptor agonists” (priority 2003, published 2005).

One test concerns the target T1, human EP1 receptor (Homo sapiens, UniProt P34995).
T1 construct: expressed in transfected cells
T1 sequence (P34995 1-402): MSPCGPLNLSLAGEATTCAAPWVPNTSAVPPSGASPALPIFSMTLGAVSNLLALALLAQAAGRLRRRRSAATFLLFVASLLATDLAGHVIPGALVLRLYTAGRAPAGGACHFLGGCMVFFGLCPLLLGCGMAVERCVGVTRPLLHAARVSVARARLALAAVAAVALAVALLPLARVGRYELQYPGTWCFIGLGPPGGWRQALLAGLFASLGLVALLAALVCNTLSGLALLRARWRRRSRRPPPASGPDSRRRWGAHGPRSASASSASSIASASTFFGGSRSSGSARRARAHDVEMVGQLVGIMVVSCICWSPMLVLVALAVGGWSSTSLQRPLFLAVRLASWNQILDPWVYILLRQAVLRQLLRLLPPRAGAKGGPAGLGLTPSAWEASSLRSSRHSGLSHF
As to the kind of experiment: Radioligand ([3H]PGE2) competition displacement binding, human EP1 receptor membranes. As to conditions: [3H]PGE2 displacement, read-out: pKi EP1 (converted). Here is the method: Membranes were prepared from cells stably transfected with human EP receptor cDNA. In brief, cells were cultured to confluency, scraped from culture flasks, and centrifuged (800 g, 8 minutes, 4° C.). Cells were twice washed in ice cold homogenisation buffer containing 10 mMTris-HCl, 1 mM EDTA.2Na, 250 mM sucrose, 1 mM PMSF, 0.3 mM indomethacin, pH 7.4, homogenised and re-centrifuged as before. The supernatant was stored on ice and pellets re-homogenised and re-spun. Supernatants were pooled and centrifuged at 40000 g, 10 minutes, 4° C. Resultant membrane pellets were stored at −80° C. until use.
For assay, membranes expressing human EP4, EP3, EP2 or EP1 receptors were incubated in Millipore (MHVBN45) plates containing assay buffer, radiolabelled [^3H]PGE2 and 0.1 to 10 000 nM concentrations of compounds. Incubations were performed at suitable temperatures and for suitable times to allow equilibrium to be reached. Non-specific binding was determined in the presence of 10 uM PGE2. Bound and free radiolabel was separated by vacuum manifold filtration using appropriate wash buffers, and bound radiolabel was determined by scintillation counting. Constituents of each of the buffers are included in table 4 below.
The affinity or pKi of each compound for each receptor was calculated from the concentration causing 50% radioligand displacement (IC50) using the Cheng-Prusoff equation: [formula] […]

In test [1] the test system is TNFα production by alveolar macrophages. Briefly: Alveolar macrophage assay: LPS-induced TNFα release. Type of test: cell-based, human. As to conditions: Homo sapiens, Macrophage, inhibition of TNFα production, LPS 1 μg/ml, 24 h, mean of three donors. Here is the method:
Human lung parenchyma was cut into small pieces and perfused with ice-cold phosphate buffered saline (PBS) to remove contaminating blood and mucus. The tissues were then chopped with scissors in the presence of Minimum Essential Medium supplemented with penicillin, streptomycin, L-glutamine and DNase (0.25 mg/ml). The chopped tissues were shaken gently to dislodge the macrophages. A crude cell suspension was then obtained by the removal of the tissues with a sterile filter (150 μm pore size). The resulting cell suspension was spun and the cell pellet collected. Contaminating red blood cells were depleted with a red blood cell lysis buffer and the remaining cells washed twice with PBS by centrifugation. Alveolar macrophages were then purified from this cell preparation by using a positive selection method for CD14-molecule bearing cells using a VarioMac™ Separator and respective positive selection reagents and columns supplied by Miltenyi Biotec Ltd according to the manufacturer's instruction.
For the assay, alveolar macrophages were resuspended in complete culture medium consisting of RPMI1640 supplemented with 10% foetal calf serum, L-glutamine and antibiotics. The cells were then plated into 24 well plates (4×10^5 cell/well) and incubated overnight at 37° C. with 5% CO2 in air to allow cell adherence. The exhausted medium was then removed from the plates and the plates rinsed briefly with fresh medium before the addition of test compound solutions. The test compounds were incubated with the cells for 30 minutes before the addition of E. Coli LPS (1 μg/ml). The assay plates were incubated in a humidified incubator at 37° C. with 5% CO2 in air for 24 hours. The release of TNFα by the cells into the culture supernatants was quantified using an ELISA kit (DuoSet® human TNFα ELSIA Development System) supplied by R+D Systems (Europe) according to the manufacturer's instruction. Indomethacin at 3 μM was included in all treatments to inhibit the possible release of endogenous prostaglandin E2.

Like-named read-outs stand apart in the source and are kept apart here.

Turning to `CCCCCC(O)c1ccc(C2CCC(=O)C2CCCCCCC(=O)O)cc1` (racemic) [AH13205, (±)-trans-2-[4-(1-hydroxyhexyl)phenyl]-5-oxo-cyclopentaneheptanoic acid, reference compound], the Ki on human EP1 receptor was 10 µM.
With `CCCCC[C@H](O)c1ccc([C@H]2CCC(=O)[C@@H]2CCCCCCC(=O)O)cc1` (single isomer, unassigned) [Peak 1, Mixture 1 acid], the EC50 was 7.02 µM in test [1] (read-out: Mean EC50) and 7.01 µM in test [1] (log scale, read-out: Mean Log (EC50) (converted)).
